Measurements: patent US20240343726A1, “PYRROLOPYRIDINE-3- AND 4-CARBOXAMIDE COMPOSITIONS AND METHODS FOR CELLULAR PROLIFERATION” (The Rockefeller University, priority 2021, published 2024)

Key:
[1] = test system: phosphorylation of YAP; experiment: pYAP HTRF Assay (HEK 293A Cells); assay type: cell-based; conditions: HEK293-A, inhibitory activity of phosphorylation of YAP, read-out: LATS1_ICKA_HEK293A IC50
Protocol: Use 3× dilution scheme in DMSO through column 10, lastly diluting further by 10× into column 11. Add 100% DMSO in serum-free and complete medium in columns 1 and 12 as a positive and negative control, respectively. To achieve a dilution of 1:500, use two 0.8 ml 96-well deep-well plates (ThermoFisher AB0765) pre-filled with the medium as intermediate (1:20) and final dilution plate (1:25). (Transfer row-wise) • Flick the cell plate carefully, three to four times or until all wells are clear of any residual liquid. Dispense 50 μL of the compound in medium into respective wells row-wise, incubate at 37° C. for 30 min • After a 30-minute incubation, flick the cell plate carefully, three to four times or until all wells are clear of any residual liquid. Dilute stock Lysis Buffer #4 (4×) in deionized water, complemented with blocking solution, the stock of which is 100×*. Add 75 μL 1× lysis buffer+blocking reagent mix into each well. Mix plate on a shaker for 30 min at room temperature • Dilute stock solution of total/phospho-YAP Eu cryptate & d2 antibody (each) in the ratio of 1:20 with detection buffer. Mix antibody solutions Eu3+ cryptate and d2 (each for total-Yap and phospho-YAP) in the ratio of 1:1*. Transfer 4 μL of the antibody mixture into two separate small-volume 384-well plates assigned for total-YAP and phospho-YAP. Give a short spin to the plates in a benchtop centrifuge set at 1000 rpm for 30 seconds • Row-wise, homogenize the lysate gently by pipetting it up and down, swirling the tip in the well to help scrape off any adherent cells (avoid bubble formation). Row-wise transfer 16 μL cell lysate into the low-volume 384-well plates with 4 μL total-YAP or phospho-YAP antibody reaction mix for a final volume of 20 μL. Spin down the plates in a benchtop centrifuge set at 1000 rpm for 30 seconds • Seal the plates using a vacuum sealer, incubate overnight at room temperature in the dark on a shaker; read the next day • Use a fluorescence emission read using compatible HTRF® reader—BioTek Synergy NEO. […] Included in Cisbio HTRF YAP total kit (#64YATPEH) & YAP phospho-S127 kit (#64YAPPEH).

[2] = molecular target: LATS1 kinase (Homo sapiens (Human), UniProt O95835); experiment: LATS1 Biochemical HTRF Assay; conditions: 2 mM ATP; read-out: LATS1_HTRF_2 mM ATP IC50
Sequence of LATS1 kinase (O95835 589-1130): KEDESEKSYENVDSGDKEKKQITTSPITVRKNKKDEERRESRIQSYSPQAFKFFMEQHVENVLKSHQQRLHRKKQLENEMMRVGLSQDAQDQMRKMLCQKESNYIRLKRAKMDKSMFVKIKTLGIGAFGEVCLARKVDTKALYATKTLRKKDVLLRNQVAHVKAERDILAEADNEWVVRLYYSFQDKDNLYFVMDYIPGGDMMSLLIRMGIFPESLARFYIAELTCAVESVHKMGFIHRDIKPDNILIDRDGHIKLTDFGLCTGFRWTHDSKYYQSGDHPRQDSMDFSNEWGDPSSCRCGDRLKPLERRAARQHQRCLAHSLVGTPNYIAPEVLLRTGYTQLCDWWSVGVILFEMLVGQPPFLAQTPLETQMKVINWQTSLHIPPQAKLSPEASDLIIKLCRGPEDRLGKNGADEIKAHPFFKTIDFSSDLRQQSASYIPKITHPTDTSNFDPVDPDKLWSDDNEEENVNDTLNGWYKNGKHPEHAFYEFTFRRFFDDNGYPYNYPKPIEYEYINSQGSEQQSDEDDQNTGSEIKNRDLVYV
Protocol: LATS1 Biochemical HTRF Assay
MgCl2 and [1 mM] DTT. 1× Enzymatic buffer diluted from 5× Enzymatic buffer*. Add 0.5 μL of 20× compound in 100% DMSO. […] MgCl2, [1 mM] DTIT and [5 mg/mL] BSA. 5×ERR prepared from 5× Enzymatic buffer with [25 mg/mL] BSA. Mix plate on plate shaker set at 1,350 rpm for 30 seconds, then centrifuge plate at 1,000 rpm for 1 minute. Incubate for 30 minutes at 25° C. on plate shaker set to 500 rpm. […] STK Substrate 1-biotin* then add 2 μL [10 mM] ATP. Mix plate on plate shaker set at 1,350 rpm for 30 seconds, then centrifuge plate at 1,000 rpm for 1 minute. Incubate for 40 minutes at 25° C. on plate shaker set to 500 rpm. […] Streptavidin-XL665 with 1×STK Antibody-Cryptate*. Mix plate on plate shaker set at 1,350 rpm for 30 seconds, then centrifuge plate at 1,000 rpm for 1 minute. Incubate for 60 minutes at 25° C. on plate shaker set to 500 rpm, covered from light.
*(Included in Cisbio KinEASE-STK Si HTRF Kit: 62ST1PEC)

Compound	IC50 [1] [nM]	IC50 [2] [nM]
O=C(/N=c1\sccn1-c1ccccc1Cl)c1ccnc2[nH]ccc12 [Example 41]	4.75	–
O=C(/N=C1\SCCN1c1cccc(F)c1O)c1c[nH]c2ncccc12 [Example 73]	–	1.4
O=C(/N=C1\SCCN1c1ccc(F)cc1O)c1c[nH]c2ncccc12 [Example 72]	–	1.1
O=C(/N=C1\SCCCCN1Cc1ccccc1)c1c[nH]c2ncccc12 [Example 39, (Z)—N-(3-benzyl-1,3-thiazepan-2-ylidene)-1H-pyrrolo[2,3-b]pyridine-3-carboxamide]	–	270
O=C(/N=c1\scc(CO)n1Cc1ccccc1)c1ccnc2[nH]ccc12 [Example 54, (Z)—N-(3-benzyl-4-(hydroxymethyl)thiazol-2(3H)-ylidene)-1H-pyrrolo[2,3-b]pyridine-4-carboxamide]	–	180
COc1ccc(N2CCS/C2=N\C(=O)c2c[nH]c3ncccc23)cc1 [Example 7]	1850	–
O=C(/N=C1\SCCN1c1cc(F)ccc1O)c1c[nH]c2ncccc12 [Example 75]	–	1.5
O=C(/N=C1\SCC(CO)N1c1ccccc1Cl)c1c[nH]c2ncccc12 (centres unmarked) [Example 80]	–	1.6
O=C(/N=c1\sccn1Cc1ccccc1)n1ccc2ncccc21 [Example 86]	–	900
O=C(/N=C1\SCCN1C1CCC(O)C1)c1c[nH]c2ncccc12 (centres unmarked) [Example 81, (Z)—N-(3-(3-hydroxycyclopentyl)thiazolidin-2-ylidene)-1H-pyrrolo[2,3-b]pyridine-3-carboxamide]	–	50
O=C(/N=c1\sccn1-c1ccccc1C(F)(F)F)c1ccnc2[nH]ccc12 [Example 48]	–	1230
O=C(/N=C1\SCCCCN1c1ccccc1)c1c[nH]c2ncccc12 [Example 40, (Z)—N-(3-phenyl-1,3-thiazepan-2-ylidene)-1H-pyrrolo[2,3-b]pyridine-3-carboxamide]	–	220
O=C(/N=c1\sccn1-c1ccccc1Cl)n1ccc2ncccc21 [Example 85]	31600	–
O=C(/N=C1\SCCCN1c1ccccc1)c1ccnc2[nH]ccc12 [Example 29]	–	1380
O=C(/N=c1\sccn1-c1ccc(CO)cc1Cl)c1ccnc2[nH]ccc12 [Example 50]	–	2060
CCc1ccccc1-n1ccs/c1=N\C(=O)c1ccnc2[nH]ccc12 [Example 47]	–	765
O=C(/N=C1\SCC2CNCCN12)c1c[nH]c2ncccc12 (centres unmarked) [Example 22, (Z)—N-(hexahydro-3H-thiazolo[3,4-a]pyrazin-3-ylidene)-1H-pyrrolo[2,3-b]pyridine-3-carboxamide]	–	2130
O=C(/N=C1\SCCCN1c1cccc(O)c1)c1c[nH]c2ncccc12 [Example 78]	–	18
O=C(/N=C1\SCCN1c1ccccc1)n1ccc2ncccc21 [Example 84]	2290	–
CN(C)Cc1cs/c(=N\C(=O)c2ccnc3[nH]ccc23)n1-c1ccccc1Cl [Example 59, (Z)—N-(3-(2-chlorophenyl)-4-((dimethylamino)methyl)thiazol-2(3H)-ylidene)-1H-pyrrolo[2,3-b]pyridine-4-carboxamide]	–	215
Cc1cs/c(=N\C(=O)c2ccnc3[nH]ccc23)n1C1CCCCC1 [Example 51]	–	31
O=C(/N=C1\SCCN1c1ccc[nH]c1=O)c1c[nH]c2ncccc12 [Example 76]	–	191
N#Cc1cc2ncccc2n1C(=O)/N=c1\sccn1-c1ccccc1 [Example 87]	–	2140
Cc1cn(-c2ccccc2Cl)/c(=N/C(=O)c2ccnc3[nH]ccc23)s1 [Example 61]	–	1230
O=C(/N=C1\SCC(CO)N1Cc1ccccc1)c1c[nH]c2ncccc12 (centres unmarked) [Example 82]	–	17

Compound	IC50 [1] [nM]	IC50 [2] [nM]
O=C(/N=C1\SCCN1c1c(O)cccc1Cl)c1c[nH]c2ncccc12 [Example 74, (NZ)—N-[3-(2-chloro-6-hydroxy-phenyl)thiazolidin-2-ylidene]-1H-pyrrolo[2,3-b]pyridine-3-carboxamide]	–	1.8
O=C(/N=C1\SCCN1c1cccc(=O)[nH]1)c1c[nH]c2ncccc12 [Example 77]	–	4820
O=C(/N=C1\SCC(=O)N1c1ccccc1)c1c[nH]c2ncccc12 [Example 23]	–	224
CC1(C)CS/C(=N\C(=O)c2c[nH]c3ncccc23)N(C2CCCCC2)C1 [Example 33]	–	4440
O=C(/N=c1\scc(CO)n1-c1ccccc1Cl)c1ccnc2[nH]ccc12 [Example 55, (Z)—N-(3-(2-chlorophenyl)-4-(hydroxymethyl)thiazol-2(3H)-ylidene)-1H-pyrrolo[2,3-b]pyridine-4-carboxamide]	–	68
CN(C)C(=O)c1cs/c(=N\C(=O)c2ccnc3[nH]ccc23)n1-c1ccccc1Cl [Example 56]	–	2780
O=C(/N=c1\sccn1C1CCCCC1)c1ccnc2[nH]ccc12 [Example 49]	–	505
O=C(/N=c1\sccn1-c1ccc(Cl)cc1)c1ccnc2[nH]ccc12 [Example 44]	–	360
CC(=O)N1CCC(N2CCCS/C2=N\C(=O)c2c[nH]c3ncccc23)CC1 [Example 31]	–	2750
COc1ccccc1-n1ccs/c1=N\C(=O)c1ccnc2[nH]ccc12 [Example 46]	–	1770
O=C(/N=C1\SCCN1c1c(O)cccc1F)c1c[nH]c2ncccc12 [Example 70]	–	0.6
CN(C)C(=O)CN1CCS/C1=N\C(=O)c1c[nH]c2ncccc12 [Example 18]	–	500
CN(C)C(=O)CN1CCCS/C1=N\C(=O)c1c[nH]c2ncccc12 [Example 37, (Z)—N-(3-(2-(Dimethylamino)-2-oxoethyl)-1,3-thiazinan-2-ylidene)-1H-pyrrolo[2,3-b]pyridine-3-carboxamide]	–	1680
Cc1ccccc1-n1ccs/c1=N\C(=O)c1ccnc2[nH]ccc12 [Example 42]	–	33
CN(C)CCNC(=O)c1cs/c(=N\C(=O)c2ccnc3[nH]ccc23)n1Cc1ccccc1 [Example 57, (Z)-2-((1H-pyrrolo[2,3-b]pyridine-4-carbonyl)imino)-3-benzyl-N-(2-(dimethylamino)ethyl)-2,3-dihydrothiazole-4-carboxamide]	–	460
Cc1cs/c(=N\C(=O)c2ccnc3[nH]ccc23)n1Cc1ccccc1 [Example 53]	–	220
O=C(/N=C1\SCCN1C1CCCC1O)c1c[nH]c2ncccc12 (centres unmarked) [Example 79, (NZ)—N-[3-(2-hydroxycyclopentyl)thiazolidin-2-ylidene]-1H-pyrrolo[2,3-b]pyridine-3-carboxamide]	–	221
CNC(=O)C1CS/C(=N\C(=O)c2c[nH]c3ncccc23)N1c1ccccc1 (centres unmarked) [Example 15, (Z)-2-((1H-pyrrolo[2,3-b]pyridine-3-carbonyl)imino)-N-methyl-3-phenylthiazolidine-4-carboxamide]	–	7.9
O=C(/N=C1\SCC2CCCCN12)c1c[nH]c2ncccc12 (centres unmarked) [Example 21]	–	3780
CC(=O)NCc1cs/c(=N\C(=O)c2ccnc3[nH]ccc23)n1-c1ccccc1Cl [Example 60, (Z)—N-(4-(acetamidomethyl)-3-(2-chlorophenyl)thiazol-2(3H)-ylidene)-1H-pyrrolo[2,3-b]pyridine-4-carboxamide]	–	330
O=C(/N=c1\sccn1-c1cccc(Cl)c1)c1ccnc2[nH]ccc12 [Example 43]	–	1670
Cc1cs/c(=N\C(=O)c2ccnc3[nH]ccc23)n1CC1CCCCC1 [Example 52]	–	12
O=C(/N=c1\sc(CO)cn1-c1ccccc1Cl)c1ccnc2[nH]ccc12 [Example 63, (Z)—N-(3-(2-chlorophenyl)-5-(hydroxymethyl)thiazol-2(3H)-ylidene)-1H-pyrrolo[2,3-b]pyridine-4-carboxamide]	–	850
O=C(/N=c1\sccc(=O)n1-c1ccccc1)c1c[nH]c2ncccc12 [Example 38]	–	650
O=C(/N=c1\sc(CO)cn1Cc1ccccc1)c1ccnc2[nH]ccc12 [Example 62, (Z)—N-(3-benzyl-5-(hydroxymethyl)thiazol-2(3H)-ylidene)-1H-pyrrolo[2,3-b]pyridine-4-carboxamide]	–	4040
